Results on two compounds are retold here after patent publication US11744844B2, “Selective estrogen receptor degraders” (Eli Lilly and Company, priority 2021, dated 2023).

The target of this test is T1, ERα (Homo sapiens, UniProt P03372).
T1 construct: measure the degradation of ERα by a test compound in an ERα positive breast cancer cell line such as MCF7; host or cells: MCF7
T1 sequence (P03372 1-595): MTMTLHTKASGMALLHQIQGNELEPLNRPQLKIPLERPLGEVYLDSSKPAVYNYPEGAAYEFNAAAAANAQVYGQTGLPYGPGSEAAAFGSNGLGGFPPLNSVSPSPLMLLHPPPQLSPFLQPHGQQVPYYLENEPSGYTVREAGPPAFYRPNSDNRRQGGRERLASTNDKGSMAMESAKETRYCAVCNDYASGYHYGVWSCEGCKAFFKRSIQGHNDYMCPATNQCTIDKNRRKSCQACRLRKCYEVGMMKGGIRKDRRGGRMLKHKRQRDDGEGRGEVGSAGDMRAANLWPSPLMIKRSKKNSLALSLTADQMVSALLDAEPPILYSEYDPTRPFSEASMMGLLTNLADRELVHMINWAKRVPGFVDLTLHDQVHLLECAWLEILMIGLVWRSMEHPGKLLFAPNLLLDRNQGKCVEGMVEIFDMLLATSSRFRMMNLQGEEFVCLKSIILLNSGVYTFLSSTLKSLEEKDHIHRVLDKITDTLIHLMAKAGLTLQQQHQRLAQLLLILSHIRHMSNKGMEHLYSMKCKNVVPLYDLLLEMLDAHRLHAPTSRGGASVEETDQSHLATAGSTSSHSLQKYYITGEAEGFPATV
The test is described as follows: ERα degradation assay in MCF7 cells. Particulars: 24 hours incubation, read-out: Relative IC50, ERα degradation (% ER positive cells). The test is classed as cell-based. As for the experimental part:
The purpose of the following ERα degradation assay is to measure the degradation of ERα by a test compound in an ERα positive breast cancer cell line such as MCF7.
Culture MCF7 (purchased from ATCC HTB-22) cells in DMEM media supplemented with 10% FBS, 0.01 mg/mL human insulin 1 and 1% penicillin/streptomycin antibiotics and plate in 384-well flat-bottom plates at a density of 4,000 cells per well in phenol red free DMEM media (20 μL) containing 10% charcoal stripped FBS. Incubate the cells overnight in a cell culture incubator (5% CO2, 95% relative humidity and 37° C.) and allow the cells to attach to the plate. The following day dose the cells with the test compound. Use an Echo 555 acoustic dispenser to prepare test compound serial dilutions (1:3) in a range from 6 μM to 0.0003 μM. Dose the cells with the addition of 5 μL from the serial dilution plate to the cell plate producing a final DMSO concentration of 0.2% with a final test compound concentration dose range between 2 and 0.0001 μM. For the maximum point, use media containing 0.2% of DMSO and for the minimum point, use fulvestrant diluted at 2 μM final concentrations in the growth media containing 0.2% DMSO. […] Scan the plates with ACUMEN EXPLORER™ (Laser-scanning fluorescence microplate cytometer manufactured by TTP LABTECH LTD) to measure ERα. […]

Structures can show the parent of a compound that is named as a salt.

`O=S(=O)(O)Oc1ccc2c3c(cnc2c1)-c1ccc(C(F)(F)F)cc1O[C@@H]3c1ccc(OCCN2CC(CF)C2)cc1` [Example 1, [(5R)-5-[4-[2-[3-(Fluoromethyl)azetidin-1-yl]ethoxy]phenyl]-8-(trifluoromethyl)-5H-chromeno[4,3-c]quinolin-2-yl]hydrogen sulfate]: the DC50 was 115 ± 18.4 nM.
Turning to `O=C(O)[C@H]1O[C@@H](Oc2ccc3c4c(cnc3c2)-c2ccc(C(F)(F)F)cc2O[C@@H]4c2ccc(OCCN3CC(CF)C3)cc2)[C@H](O)[C@@H](O)[C@@H]1O` [Example 2, (2S,3S,4S,5R,6S)-6-[[(5R)-5-[4-[2-[3-(Fluoromethyl)azetidin-1-yl]ethoxy]phenyl]-8-(trifluoromethyl)-5H-chromeno[4,3-c]quinolin-2-yl]oxy]-3,4,5-trihydroxy-tetrahydropyran-2-carboxylic acid], the DC50 came out at 211 ± 69.2 nM.
